For assay [1], the target named is [CK1α]-[compound]-[CRBN/DDB1] ternary complex (Homo sapiens, UniProt P48729+Q96SW2). Briefly: AlphaLISA assay for off-target recruitment detection, CK1α. In kind it is binding. The conditions noted are these: 1 μM compound; normalized to FPFT-2216; read-out: Normalized ternary complex response, CK1α. Summed up: (§1)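 Neo-substrate with 40 μg/ml donor beads and 200 nM 6×His-CRBN/DDB1 with 40 μg/ml anti-His acceptor beads were each prepared in PBS pH 7.4 with Tween-20 and 1 mM DTT, preincubated 30 min at RT, then mixed. Compounds at 2% DMSO were incubated 30 min at 25 °C, read at 680/615 nm, and normalised between DMSO background and reference glue maximum.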

Assay [2] deals with T1, [SALL4 ZF2]-[compound]-[CRBN/DDB1] ternary complex (Homo sapiens, UniProt Q96SW2+Q9UJQ4).
T1 construct: SALL4 ZF2
Briefly: AlphaLISA assay for off-target recruitment detection, SALL4 ZF2. The conditions noted are these: 1 μM compound; normalized to Lenalidomide; read-out: Normalized ternary complex response, SALL4 ZF2. In kind it is binding. Summed up: as §1

In assay [3] the test system is GSPT1-HiBiT HEK293 cells. Briefly: Cell Viability-CTG assay accompanying the Nano-Glo HiBiT assay. In kind it is cell-based. To be noted: 6 hours treatment, viability of GSPT1-HiBiT HEK293 cells. The method, then:
In parallel, the Cell Viability-CTG assay was performed to ensure that the potential decrease of the luminescent signal observed in the Nano-Glo HiBiT assay is a result of protein degradation and not a result of decreasing cell viability. For CTG assay accompanying the Nano-Glo HiBiT assay, cells were cultured, seeded and treated as described above. After 6 hours of incubation (37° C., 5% CO2), plates were removed from the incubator and let to equilibrate to RT. Luminescent signal detection was conducted using the CellTiter-Glo Lumiescent Cell Viability Assay (Promega, cat. nr G7573). 10 μL of the Cell Titer Glo reagent was added per well, plates were shaken to facilitate lysis (460 rpm, 4 min, RT) and incubated in the dark for the following 8 min. Luminescence was read using the CLARIOstar multimode plate reader (BMG LABTECH). The raw data (the relative luminescence unit values, RLU) were uploaded under the relevant protocol and analysed in CDDVault data management platform, in a manner similar to the description above. The Mean Minimum values were calculated in CDDVault using non-linear regression and appropriate equations.
For orientation: The HiBiT peptide binds its large partner to form an active luciferase.

In assay [4] the target is T2, [IKZF2 ZF2]-[compound]-[CRBN/DDB1] ternary complex (Homo sapiens, UniProt Q96SW2+Q9UKS7).
T2 construct: IKZF2 ZF2
Briefly: AlphaLISA assay for off-target recruitment detection, IKZF2 ZF2. In kind it is binding. The conditions noted are these: 1 μM compound; normalized to Helios modulator; read-out: Normalized ternary complex response, IKZF2 ZF2. Summed up: as §1
A general note: Alpha assays give light when donor and acceptor beads are brought close together.

Assay [5] concerns the target T3, [IKZF1 ZF2]-[compound]-[CRBN/DDB1] ternary complex (Homo sapiens, UniProt Q13422+Q96SW2).
T3 construct: IKZF1 ZF2
Briefly: AlphaLISA assay for off-target recruitment detection, IKZF1 ZF2. The assay is classed as binding. To be noted: 1 μM compound; normalized to Lenalidomide; read-out: Normalized ternary complex response, IKZF1 ZF2. Summed up:
as §1

Chain of [CK1α]-[compound]-[CRBN/DDB1] ternary complex (P48729 whole entry): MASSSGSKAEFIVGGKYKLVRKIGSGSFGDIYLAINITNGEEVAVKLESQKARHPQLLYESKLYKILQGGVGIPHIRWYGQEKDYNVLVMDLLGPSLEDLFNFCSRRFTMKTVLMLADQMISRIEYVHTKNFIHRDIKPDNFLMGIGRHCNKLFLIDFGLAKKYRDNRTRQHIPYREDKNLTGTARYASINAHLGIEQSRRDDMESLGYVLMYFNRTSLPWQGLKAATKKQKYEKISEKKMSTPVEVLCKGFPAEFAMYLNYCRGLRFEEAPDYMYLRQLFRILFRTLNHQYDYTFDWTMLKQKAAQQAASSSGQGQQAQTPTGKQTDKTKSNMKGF
Chain of [CK1α]-[compound]-[CRBN/DDB1] ternary complex (Q96SW2 whole entry): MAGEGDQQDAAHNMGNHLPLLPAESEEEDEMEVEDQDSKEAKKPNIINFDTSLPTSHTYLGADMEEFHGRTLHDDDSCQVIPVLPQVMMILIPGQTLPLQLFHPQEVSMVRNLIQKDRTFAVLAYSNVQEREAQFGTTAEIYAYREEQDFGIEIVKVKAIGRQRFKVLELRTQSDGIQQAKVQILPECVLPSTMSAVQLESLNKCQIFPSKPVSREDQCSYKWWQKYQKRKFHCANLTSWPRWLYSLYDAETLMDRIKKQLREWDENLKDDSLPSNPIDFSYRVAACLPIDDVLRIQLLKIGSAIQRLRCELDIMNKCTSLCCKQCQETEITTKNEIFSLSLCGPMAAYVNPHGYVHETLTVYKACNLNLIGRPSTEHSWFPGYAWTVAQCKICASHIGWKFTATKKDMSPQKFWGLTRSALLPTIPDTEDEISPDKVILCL
Chain of [CK1α]-[compound]-[CRBN/DDB1] ternary complex (Q16531 whole entry partner): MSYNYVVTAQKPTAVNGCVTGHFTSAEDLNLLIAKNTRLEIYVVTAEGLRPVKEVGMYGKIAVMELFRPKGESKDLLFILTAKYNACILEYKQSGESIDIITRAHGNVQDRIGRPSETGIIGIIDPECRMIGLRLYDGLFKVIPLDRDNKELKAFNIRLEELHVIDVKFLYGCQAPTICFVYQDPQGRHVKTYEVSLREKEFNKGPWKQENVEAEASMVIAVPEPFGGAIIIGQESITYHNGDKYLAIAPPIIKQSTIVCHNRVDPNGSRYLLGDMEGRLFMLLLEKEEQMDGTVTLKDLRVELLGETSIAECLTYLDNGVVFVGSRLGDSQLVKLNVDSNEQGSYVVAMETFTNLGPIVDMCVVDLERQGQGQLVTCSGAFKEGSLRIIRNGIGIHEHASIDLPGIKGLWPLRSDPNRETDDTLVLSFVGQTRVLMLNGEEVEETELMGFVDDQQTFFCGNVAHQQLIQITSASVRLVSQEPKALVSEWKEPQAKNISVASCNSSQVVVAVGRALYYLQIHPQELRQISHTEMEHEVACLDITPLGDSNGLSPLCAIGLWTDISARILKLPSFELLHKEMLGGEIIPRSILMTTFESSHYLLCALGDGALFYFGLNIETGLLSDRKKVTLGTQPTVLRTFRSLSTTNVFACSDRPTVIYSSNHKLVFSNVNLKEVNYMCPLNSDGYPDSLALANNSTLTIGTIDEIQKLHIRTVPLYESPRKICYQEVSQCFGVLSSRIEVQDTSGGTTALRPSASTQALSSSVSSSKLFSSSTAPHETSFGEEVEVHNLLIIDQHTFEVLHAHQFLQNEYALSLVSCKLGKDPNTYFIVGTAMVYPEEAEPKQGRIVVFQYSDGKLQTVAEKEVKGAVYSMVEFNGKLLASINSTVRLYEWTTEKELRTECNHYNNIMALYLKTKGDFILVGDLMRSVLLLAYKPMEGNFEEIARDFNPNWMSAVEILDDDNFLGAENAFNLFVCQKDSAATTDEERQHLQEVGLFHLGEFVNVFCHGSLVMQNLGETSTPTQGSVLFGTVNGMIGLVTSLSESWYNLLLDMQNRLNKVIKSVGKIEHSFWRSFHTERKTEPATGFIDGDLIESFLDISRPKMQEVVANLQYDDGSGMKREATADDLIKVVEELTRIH
T2 sequence (Q9UKS7 140-162 limits assumed): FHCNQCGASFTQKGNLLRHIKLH
T2 sequence (Q96SW2 whole entry): as the sequence (Q96SW2 whole entry) above
T2 sequence (Q16531 whole entry partner): as the sequence (Q16531 whole entry partner) above
T3 sequence (Q13422 145-167 limits assumed): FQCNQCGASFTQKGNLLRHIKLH
T3 sequence (Q96SW2 whole entry): as the sequence (Q96SW2 whole entry) above
T3 sequence (Q16531 whole entry partner): as the sequence (Q16531 whole entry partner) above
T1 sequence (Q9UJQ4 410-432 limits assumed): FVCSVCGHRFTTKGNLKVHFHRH
T1 sequence (Q96SW2 whole entry): as the sequence (Q96SW2 whole entry) above
T1 sequence (Q16531 whole entry partner): as the sequence (Q16531 whole entry partner) above

Turning to `COc1ccc(NC(=O)OCc2ccc3cc(C4CCC(=O)NC4=O)c(C)nc3c2)cc1Cl` (stereo not drawn) [Compound 11, (3-(2,6-dioxopiperidin-3-yl)-2-methylquinolin-7-yl)methyl (3-chloro-4-methoxyphenyl)carbamate], the activation at 1 µM in assay [1], in assay [2], in assay [4] and in assay [5] was under 10% throughout. In addition, in assay [3], the “CTG assay Mean minimum” value is listed as “++++ (++++≥75% of viability of the HiBiT-GSPT1 HEK293 cells)”.
On to `Cc1nc2ccc(COC(=O)Nc3cc(C(C)(C)C)no3)cc2cc1N1CCC(=O)NC1=O` [Compound 66, (3-(2,4-dioxotetrahydropyrimidin-1(2H)-yl)-2-methylquinolin-6-yl)methyl (3-(tert-butyl)isoxazol-5-yl)carbamate], for which the activation at 1 µM in assay [1] lay within 10 to 25%; in assay [2] it was 25 to 50%; in assay [4] it was 10 to 25%; in assay [5], 25 to 50%. The “CTG assay Mean minimum” value in assay [3] is reported as “++++ (++++≥75% of viability of the HiBiT-GSPT1 HEK293 cells)”.
`Cc1ccc(NC(=O)CCc2ccc3cc(C4CCC(=O)NC4=O)c(C)nc3c2)cc1Cl` (stereo not drawn) [Compound 32, N-(3-chloro-4-methylphenyl)-3-(3-(2,6-dioxopiperidin-3-yl)-2-methylquinolin-7-yl)propanamide]: the activation at 1 µM in assay [1], in assay [2], in assay [4] and in assay [5] was under 10% in each case. The “CTG assay Mean minimum” value in assay [3] is listed as “++++ (++++≥75% of viability of the HiBiT-GSPT1 HEK293 cells)”.
As to `Cc1nc2cc(COC(=O)Nc3ccc(C(C)(C)C)cc3)ccc2cc1C1CCC(=O)NC1=O` (stereo not drawn) [Compound 8, (3-(2,6-dioxopiperidin-3-yl)-2-methylquinolin-7-yl)methyl (4-(tert-butyl)phenyl)carbamate], the activation at 1 µM in assay [1], in assay [2], in assay [4] and in assay [5] was under 10% in each case. Moreover, the “CTG assay Mean minimum” value in assay [3] is on record as “++++ (++++≥75% of viability of the HiBiT-GSPT1 HEK293 cells)”.
For `Cc1nc2cc(COC(=O)Nc3ccc4c(c3)OCCO4)ccc2cc1C1CCC(=O)NC1=O` (stereo not drawn) [Compound 15, (3-(2,6-dioxopiperidin-3-yl)-2-methylquinolin-7-yl)methyl (2,3-dihydrobenzo[b][1,4]dioxin-6-yl)carbamate], the activation at 1 µM in assay [1], in assay [2], in assay [4] and in assay [5] was under 10% throughout. Moreover, the “CTG assay Mean minimum” value in assay [3] is “++++ (++++≥75% of viability of the HiBiT-GSPT1 HEK293 cells)”.
On to `Cc1nc2cc(COC(=O)Nc3ccc(C(F)(F)F)c(Cl)c3)ccc2cc1C1CCC(=O)NC1=O` (stereo not drawn) [Compound 18, (3-(2,6-dioxopiperidin-3-yl)-2-methylquinolin-7-yl)methyl (3-chloro-4-(trifluoromethyl)phenyl)carbamate], for which the activation at 1 µM in assay [1], in assay [2], in assay [4] and in assay [5] was under 10% in each case. In assay [3], the “CTG assay Mean minimum” value was “++++ (++++≥75% of viability of the HiBiT-GSPT1 HEK293 cells)”.
Turning to `Cc1nc2cc(CNC(=O)Nc3cc(C(C)(C)C)no3)ccc2cc1N1CCC(=O)NC1=O` [Compound 64, 1-(3-(tert-butyl)isoxazol-5-yl)-3-((3-(2,4-dioxotetrahydropyrimidin-1(2H)-yl)-2-methylquinolin-7-yl)methyl)urea], the activation at 1 µM in assay [1], in assay [2], in assay [4] and in assay [5] was under 10% each time. The “CTG assay Mean minimum” value in assay [3] is on record as “++++ (++++≥75% of viability of the HiBiT-GSPT1 HEK293 cells)”.
In the case of `Cc1nc2cc(COC(=O)Nc3ccc(C(C)(C)C)c(Cl)c3)ccc2cc1C1CCC(=O)NC1=O` (stereo not drawn) [Compound 10, (3-(2,6-dioxopiperidin-3-yl)-2-methylquinolin-7-yl)methyl (4-(tert-butyl)-3-chlorophenyl)carbamate], the activation at 1 µM in assay [1], in assay [2], in assay [4] and in assay [5] was under 10% throughout. Moreover, the “CTG assay Mean minimum” value in assay [3] is “++++ (++++≥75% of viability of the HiBiT-GSPT1 HEK293 cells)”.
Regarding `Cc1ccc(NC(=O)OCc2ccc3cc([C@@H]4CCC(=O)NC4=O)c(C)nc3c2)cc1Cl` [Compound 38, (3-(2,6-dioxopiperidin-3-yl)-2-methylquinolin-7-yl)methyl (3-chloro-4-methylphenyl)carbamate], the activation at 1 µM in assay [1], in assay [2], in assay [4] and in assay [5] was under 10% each time. Further, the “CTG assay Mean minimum” value in assay [3] is “++++ (++++≥75% of viability of the HiBiT-GSPT1 HEK293 cells)”.
For the molecule `Cc1nc2cc(COC(=O)Nc3cccc(-c4ccccc4)c3)ccc2cc1C1CCC(=O)NC1=O` (stereo not drawn) [Compound 46, (3-(2,6-dioxopiperidin-3-yl)-2-methylquinolin-7-yl)methyl [1,1′-biphenyl]-3-ylcarbamate], the activation at 1 µM in assay [1], in assay [2], in assay [4] and in assay [5] was under 10% throughout. Moreover, the “CTG assay Mean minimum” value in assay [3] was “++++ (++++≥75% of viability of the HiBiT-GSPT1 HEK293 cells)”.
Regarding `Cc1nc2cc(COC(=O)Nc3cc(OC(F)(F)F)ccc3F)ccc2cc1C1CCC(=O)NC1=O` (stereo not drawn) [Compound 6, (3-(2,6-dioxopiperidin-3-yl)-2-methylquinolin-7-yl)methyl (2-fluoro-5-(trifluoromethoxy)phenyl)carbamate], the activation at 1 µM in assay [1], in assay [2], in assay [4] and in assay [5] was under 10% in each case. Moreover, in assay [3], the “CTG assay Mean minimum” value is “++++ (++++≥75% of viability of the HiBiT-GSPT1 HEK293 cells)”.
On to `Cc1ccc(NC(=O)OCc2ccc3cc(N4CCC(=O)NC4=O)c(C)nc3c2)cc1Cl` [Compound 28, (3-(2,4-dioxotetrahydropyrimidin-1(2H)-yl)-2-methylquinolin-7-yl)methyl (3-chloro-4-methylphenyl)carbamate], for which the activation at 1 µM in assay [1], in assay [2], in assay [4] and in assay [5] was under 10% throughout. Besides, in assay [3], the “CTG assay Mean minimum” value is “++++ (++++≥75% of viability of the HiBiT-GSPT1 HEK293 cells)”.
Take `[2H]C([2H])(OC(=O)Nc1cc(C(C)(C)C)no1)c1ccc2cc(C3CCC(=O)NC3=O)c(C)nc2c1` (stereo not drawn) [Compound 82, (3-(2,6-dioxopiperidin-3-yl)-2-methylquinolin-7-yl)methyl-d2 (3-(tert-butyl)isoxazol-5-yl)carbamate]: the activation at 1 µM in assay [1], in assay [2], in assay [4] and in assay [5] was under 10% in each case. In assay [3], the “CTG assay Mean minimum” value is “++++ (++++≥75% of viability of the HiBiT-GSPT1 HEK293 cells)”.
In the case of `Cc1nc2cc(COC(=O)Nc3cccc(C(C)(C)C)c3)ccc2cc1C1CCC(=O)NC1=O` (stereo not drawn) [Compound 9, (3-(2,6-dioxopiperidin-3-yl)-2-methylquinolin-7-yl)methyl (3-(tert-butyl)phenyl)carbamate], the activation at 1 µM in assay [1], in assay [2], in assay [4] and in assay [5] was under 10% each time. For the same molecule, in assay [3], the “CTG assay Mean minimum” value is given as “++++ (++++≥75% of viability of the HiBiT-GSPT1 HEK293 cells)”.
With `Cc1ccc(NC(=O)OCc2ccc3nc(C)c(C4CCC(=O)NC4=O)cc3c2)cc1Cl` (stereo not drawn) [Compound 5, (3-(2,6-dioxopiperidin-3-yl)-2-methylquinolin-6-yl)methyl (3-chloro-4-methylphenyl)carbamate], the activation at 1 µM in assay [1] is under 10%; in assay [2], 25 to 50%; in assay [4], 10 to 25%; in assay [5], 25 to 50%.
Take `Cc1ccc(NC(=S)NCc2ccc3cc(C4CCC(=O)NC4=O)c(C)nc3c2)cc1Cl` (stereo not drawn) [Compound 2, 1-(3-chloro-4-methylphenyl)-3-((3-(2,6-dioxopiperidin-3-yl)-2-methylquinolin-7-yl)methyl)thiourea]: the activation at 1 µM in assay [1], in assay [2], in assay [4] and in assay [5] was under 10% each time.
